Here are results for two molecules from PMC10895668, “Lead Optimization of the 5-Phenylpyrazolopyrimidinone NPD-2975 toward Compounds with Improved Antitrypanosomal Efficacy” (Journal of Medicinal Chemistry, 2024).

In general, Tmax refers to the time at which the peak concentration occurs.

The subject of series [1] is peritoneal mouse macrophages (PMM). The series is described as follows: Cytotoxicity on peritoneal mouse macrophages. In kind it is cell-based. The following applies: Macrophage, n ≥ 2.
The next series relates to Trypanosoma cruzi. The series is described as follows: Antiparasitic assay, T. cruzi. In kind it is cell-based. The following applies: mean ± SD, n ≥ 2, read-out: pIC50 T. cruzi (converted). The procedure:
(§1) First, they were tested in vitro against the protozoan species Trypanosoma cruzi and Leishmania infantum and the clinically relevant T. b. rhodesiense.
(§2) The antiparasitic assays were carried out exactly as described in Blaazer et al.([39]) Metabolic stability, pharmacokinetics, acute mouse infection model results were collected as described previously.[21] All animal experiments were conducted in compliance with institutional guidelines and following approval by the Ethical Committee of the University of Antwerp, Belgium [UA-ECD 2014–96]. Female Swiss mice (15–20 g), were purchased from Janvier (Le Genest Saint Isle, France). […] Animals were treated PO b.i.d. for 5 days at 25 and 50 mg/kg 31c. For the SL-RNA qPCR experiments blood was collected sublingually and subjected to erythrocyte lysis before extracting RNA with the QIAamp RNA Blood Mini kit (Qiagen). […] Small pieces of fat, brain, and spleen tissue were excised and immediately transferred to RNA later (Qiagen) and incubated overnight at 4 °C. RNA extraction was performed as instructed in the RNeasy Mini Plus Kit manual (Qiagen). The one-step SensiFAST SYBR Hi-Rox PCR kit (Bioline USA Inc., via Gentaur Belgium BVBA, Kampenhout, Belgium) was used for the PCR with the following forward and reverse primers, respectively 5′-[…]-3′ and 5′-[…]-3′. […]

For the next series, the system named is T. b. rhodesiense. The series is described as follows: Trypanosoma susceptibility assay (resazurin viability). The format is cell-based. The following applies: Trypanosoma brucei, mean ± SD, n ≥ 2, read-out: pIC50 T. b. rhodesiense (converted). As for the experimental part: The antiparasitic assays were carried out exactly as described in Blaazer et al.([39]) Metabolic stability, pharmacokinetics, acute mouse infection model results were collected as described previously.[21] All animal experiments were conducted in compliance with institutional guidelines and following approval by the Ethical Committee of the University of Antwerp, Belgium [UA-ECD 2014–96]. Female Swiss mice (15–20 g), were purchased from Janvier (Le Genest Saint Isle, France). […] Animals were treated PO b.i.d. for 5 days at 25 and 50 mg/kg 31c. For the SL-RNA qPCR experiments blood was collected sublingually and subjected to erythrocyte lysis before extracting RNA with the QIAamp RNA Blood Mini kit (Qiagen). […]
Parasites were counted in a KOVA counting chamber and diluted to 1.5 × 10^4 parasites/well of a 96-well plate (200 μL total volume), upon which the prediluted test compounds were added. […] After 3 days of incubation, parasite growth was assessed fluorimetrically after addition of 50 μL of resazurin per well. After 6 h (T. b. rhodesiense) or 24 h (T. b. brucei) at 37 °C, fluorescence is measured (λex 550 nm, λem 590 nm). Parasite viability was assessed using the resazurin viability assay, and drug activity was calculated as percentage viability reduction compared to nontreated controls.
A general note: Resazurin is reduced to fluorescent resorufin, in cell work by metabolically active cells.

Series [2] deals with MRC-5 cells. The series is described as follows: MRC-5SV2 cytotoxicity assay. The format is cell-based. The following applies: Homo sapiens, MRC5, 72 h; cytotoxicity, 3 days incubation; mean ± SD, n ≥ 2; read-out: pIC50 MRC-5 (converted). The procedure: The synthesized analogues were tested against T. b. brucei, and inhibition of MRC-5 (human lung fibroblasts MRC-5SV40) cell proliferation was included as cytotoxicity control. […] Analogue 17 with an amino group instead of the carbonyl group was prepared to improve solubility for further modification. […] In vitro experiments were carried out with the bloodstream form of the T. b. brucei Squib strain (suramin-sensitive). […] All cultures and assays were conducted at 37 °C under an atmosphere of 5% CO2. […] Cell growth is compared to untreated-control wells (100% cell growth) and medium-control wells (0% cell growth). […] After 4 h at 37 °C, fluorescence is measured (λex 550 nm, λem 590 nm). The results are expressed as % reduction in cell growth/viability compared to control wells and an IC50 and an IC90 (50 and 90% inhibitory concentrations) are determined.

The conditions of series [3]: human, microsomes, 1 h.
The conditions of series [4]: mouse, microsomes.
The test system of series [5] is T. b. brucei. The series is described as follows: Trypanosoma susceptibility assay (resazurin viability). The format is cell-based. The procedure:
(§3) The antiparasitic assays were carried out exactly as described in Blaazer et al.([39]) Metabolic stability, pharmacokinetics, acute mouse infection model results were collected as described previously.[21] All animal experiments were conducted in compliance with institutional guidelines and following approval by the Ethical Committee of the University of Antwerp, Belgium [UA-ECD 2014–96]. Female Swiss mice (15–20 g), were purchased from Janvier (Le Genest Saint Isle, France). […] Animals were treated PO b.i.d. for 5 days at 25 and 50 mg/kg 31c. For the SL-RNA qPCR experiments blood was collected sublingually and subjected to erythrocyte lysis before extracting RNA with the QIAamp RNA Blood Mini kit (Qiagen). […] Small pieces of fat, brain, and spleen tissue were excised and immediately transferred to RNA later (Qiagen) and incubated overnight at 4 °C. RNA extraction was performed as instructed in the RNeasy Mini Plus Kit manual (Qiagen). The one-step SensiFAST SYBR Hi-Rox PCR kit (Bioline USA Inc., via Gentaur Belgium BVBA, Kampenhout, Belgium) was used for the PCR with the following forward and reverse primers, respectively 5′-[…]-3′ and 5′-[…]-3′. An initial activation step of 10 min at 45 °C and 10 min at 95 °C was used, followed by the amplification step for 40 cycles (15 s at 95 °C, 15 s 50 °C and 15 s at 60 °C). At last, the melting curves were generated with an increment of 0.3 °C (15 s at 95 °C 1 min at 45 °C and 15 s at 95 °C). The PCR was run on the Step One Plus real-time PCR system (Applied Biosystems, California, USA). An additional qPCR was performed with the mouse housekeeping gene Eef2 to confirm successful RNA extraction.
In vitro experiments were carried out with the bloodstream form of the T. b. brucei Squib strain (suramin-sensitive). Parasites were routinely cultured in T25 culture flasks containing 10 mL of HMI-9 medium (Invitrogen) supplemented with 10% heat-inactivated fetal bovine serum (Life Technologies) and 2.5 μg/mL Geneticin (Life Technologies). MRC-5SV2 cells were cultured in MEM + Earl’s salts-medium, supplemented with 2 mM L-glutamine, 16.5 mM NaHCO3, and 5% inactivated fetal calf serum. All cultures and assays were conducted at 37 °C under an atmosphere of 5% CO2.
Parasites were counted in a KOVA counting chamber and diluted to 1.5 × 10^4 parasites/well of a 96-well plate (200 μL total volume), upon which the prediluted test compounds were added. Drug exposure covered a 72 h period without renewal of the culture medium. After 3 days of incubation, parasite growth was assessed fluorimetrically after addition of 50 μL of resazurin per well. After 6 h (T. b. rhodesiense) or 24 h (T. b. brucei) at 37 °C, fluorescence is measured (λex 550 nm, λem 590 nm). Parasite viability was assessed using the resazurin viability assay, and drug activity was calculated as percentage viability reduction compared to nontreated controls.

For the next series, the system named is Leishmania infantum. The series is described as follows: Antiparasitic assay, L. infantum. In kind it is cell-based. To be noted: mean ± SD, n ≥ 2, read-out: pIC50 L. infantum (converted). As for the experimental part: as §1, §2
The nature of the next series: in vivo. The following applies: female, Swiss, mouse, in vivo. The procedure: as §3
Blood drops were sampled before treatment and at 0.5, 1, 2, 4, 6, and 24 h after PO dosage; samples after IP dosage were identical with an additional time point of 0.25 h. The blood drops were analyzed adopting the dry blood spot technique and analysis by LC-MS^2. Briefly, blood was collected from the retro-orbital complex using capillary tubes and dropped (15 μL) on WhatmanFTADMPK cards (B). The spots were left to air-dry at room temperature for at least 2 h. For analysis, a 6 mm disk was punched out and extracted in 75:25 MeCN/water containing the internal standard tolbutamide. The amount of parent compound was determined using liquid chromatography (UPLC) (Waters Aquity) coupled with tandem quadrupole mass spectrometry (MS^2) (Waters Xevo) equipped with an electrospray ionization (ESI) interface and operated in multiple reaction monitoring mode. Standard curves in whole blood were made for calibration and validation. Standard PK parameters were determined using Topfit software.
Brain tissue of the animals was collected on ice at autopsy 24 h post-treatment (50 mg/kg oral dose) after perfusion. […] The tissues were immediately homogenized using a GentleMacs tissue homogenizer. The tissue samples were subjected to protein precipitation by adding MeCN, followed by a centrifugation step at 4 °C for 5 min at 21, 130 g. The supernatant was further diluted in 75:25 MeCN/water for LC-MS^2 analysis as described above.

The test system of series [6] is MRC-5 cells. The following applies: Figure 1; previously reported series ref 21; cited from earlier work.
Series [7] deals with T. b. brucei. Set-up: method as in PMID 37471520. To be noted: previous in vivo results ref 21, cited from earlier work.

Where two headings read alike, the source gives them in different places.

Take `O=c1[nH]c(-c2ccc(F)cc2)nc2c(C3CCCC3)n[nH]c12` [31a, 3-Cyclopentyl-5-(4-fluorophenyl)-1,6-dihydro-7H-pyrazolo[4,3-d]pyrimidin-7-one]: the IC50 in [1] is more than 63.1 µM; in the series on Trypanosoma cruzi it was more than 63.1 µM; in the series with T. b. rhodesiense, 0.01 µM; in the series on MRC-5 cells [2] it was more than 63.1 µM; in the series with T. b. brucei [5] (Trypanosoma brucei, 72 h, T. b. brucei Squib bloodstream form, 72 h exposure, mean ± SD, n ≥ 2, read-out: pIC50 T. brucei (converted)), 0.01 µM; in the series on Leishmania infantum, more than 63.1 µM. The parent compound remaining result in series [3] and in series [4] (1 h) was “at least 69%” each time. In series [4], the “time within which compound was metabolized” value is on record as not above 15 min. Besides, the “improved potency compared to 2” value in the series with T. b. brucei [5] (T. brucei, versus compound 2) amounted to 6 fold.
`CC(C)c1n[nH]c2c(=O)[nH]c(-c3ccc(F)cc3)nc12` [compound 2]: the Tmax at 24 h in the series “in vivo” (ip, 10 mg/kg) is 0.25 h; in the series “in vivo” (po, 50 mg/kg), 3 ± 1.5 h. Further, the IC50 (in series [1]; in the series on MRC-5 cells [2]) was more than 63.1 µM in each case. In the series with MRC-5 cells [6], the “MRC-5 pIC50” value is recorded as less than 4.2. The survival entry in the series on T. b. brucei [7] (25 mg/kg group) is on record as “all animals died at 11 days postinfection”; in the series on T. b. brucei [7] (50 mg/kg dose), “all animals survived until the end of the experiment”.
